Consider one compound from PMC12474298 (Viruses, 2025).

Structures are written as SMILES.

Test [1] addresses T1, IMPα3 (human IMPα3ΔIBB) (Homo sapiens, UniProt O00629).
T1 sequence (O00629 64-521 limits assumed): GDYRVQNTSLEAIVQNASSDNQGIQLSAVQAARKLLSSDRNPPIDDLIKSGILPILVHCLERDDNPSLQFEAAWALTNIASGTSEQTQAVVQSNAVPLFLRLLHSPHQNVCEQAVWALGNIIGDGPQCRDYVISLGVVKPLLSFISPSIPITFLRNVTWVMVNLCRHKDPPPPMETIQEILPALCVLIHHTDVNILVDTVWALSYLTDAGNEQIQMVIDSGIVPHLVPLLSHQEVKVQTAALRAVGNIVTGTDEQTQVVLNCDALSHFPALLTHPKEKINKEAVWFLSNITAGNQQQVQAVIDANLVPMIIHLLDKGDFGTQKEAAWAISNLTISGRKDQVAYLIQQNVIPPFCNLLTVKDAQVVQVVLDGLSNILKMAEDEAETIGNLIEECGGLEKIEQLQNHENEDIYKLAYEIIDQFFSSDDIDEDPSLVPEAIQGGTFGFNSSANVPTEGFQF
The test is described as follows: Fluorescence polarization assay, FITC-NLS peptide vs importin α3ΔIBB. (Polarisation of emitted light reports the rotation of a fluorescent probe.)

Test [2] addresses IMPα1 (human IMPα1ΔIBB) (Homo sapiens, UniProt P52292). The test is described as follows: Fluorescence polarization assay, FITC-NLS peptide vs importin α1ΔIBB.

The Kd is the constant that tells how readily two partners part at equilibrium.

`CC[C@H](C)[C@H](NC(=O)[C@H](CCCNC(=N)N)NC(=O)[C@H](CCCNC(=N)N)NC(=O)[C@H](CCCNC(=N)N)NC(=O)[C@H](CCCCN)NC(=O)[C@H](CCCCN)NC(=O)[C@@H](NC(=O)[C@H](CCC(=O)O)NC(=O)CCCCCNC(=S)Nc1ccc2c(c1)C(=O)OC21c2ccc(O)cc2Oc2cc(O)ccc21)[C@@H](C)O)C(=O)N[C@@H](CC(C)C)C(=O)N[C@@H](CCC(=O)O)C(N)=O` [HaHV1 UL36h NLS]: the figures for the Kd in test [1] and in test [2] were 193 nM and 226 nM, respectively.
